Assays:
Type in all cases: in vivo
[1] = test system: blackgrass (Alopecurus myosuroides); assay: Test A preemergence soil spray, visual injury rating 0-100; settings: 10 days, 0 = no effect, 100 = complete control
How it was run: (§1)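 Compound in a non-phytotoxic, surfactant-containing solvent is applied either as a directed soil spray before seedlings emerge or onto emerged plants 2-10 cm tall; pots hold a loam-sand blend. Plants grow 10 days under greenhouse conditions and are rated by eye against untreated controls (0 no effect, 100 complete control).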

[2] = test system: corn (Zea mays); assay: as above; settings: 10 days, 0 = no effect, 100 = complete control
How it was run: as §1

[3] = test system: foxtail, giant (giant foxtail, Setaria faberi); assay: as above; settings: 10 days, 0 = no effect, 100 = complete control
How it was run: as §1

[4] = test system: goosegrass (Eleusine indica); assay: as above; settings: 10 days, 0 = no effect, 100 = complete control
How it was run: as §1

[5] = test system: kochia (Bassia scoparia); assay: as above; settings: 10 days, 0 = no effect, 100 = complete control
How it was run: as §1

[6] = test system: oat, wild (wild oat, Avena fatua); assay: as above; settings: 10 days, 0 = no effect, 100 = complete control
How it was run: as §1

[7] = test system: palmer (palmer amaranth, palmer pigweed, Amaranthus palmeri); assay: as above; settings: 10 days, 0 = no effect, 100 = complete control
How it was run: as §1

[8] = test system: ragweed (common ragweed, Ambrosia artemisiifolia); assay: as above; settings: 10 days, 0 = no effect, 100 = complete control
How it was run: as §1

[9] = test system: ryegrass, Italian (italian ryegrass, Lolium multiflorum); assay: as above; settings: 10 days, 0 = no effect, 100 = complete control
How it was run: as §1

[10] = test system: soybean (Glycine max); assay: as above; settings: 10 days, 0 = no effect, 100 = complete control
How it was run: as §1

[11] = test system: wheat (Triticum aestivum); assay: as above; settings: 10 days, 0 = no effect, 100 = complete control
How it was run: as §1

[12] = test system: blackgrass (Alopecurus myosuroides); assay: Test A postemergence application, visual injury rating 0-100; settings: Postemergence, 10 days; for Blackgrass plant response rating (0 to 100 scale): 0 is no effect, 100 is complete control
How it was run: as §1

[13] = test system: corn (Zea mays); assay: as above; settings: Postemergence, 10 days, 0 is no effect, 100 is complete control
How it was run: as §1

[14] = test system: foxtail, giant (giant foxtail, Setaria faberi); assay: as above; settings: 10 days; for Foxtail, Giant plant response rating (0 to 100 scale): 0 is no effect, 100 is complete control
How it was run: as §1

[15] = test system: galium (catchweed bedstraw, Galium aparine); assay: as above; settings: Postemergence, 10 days; for Galium plant response rating (0 to 100 scale): 0 is no effect, 100 is complete control
How it was run: as §1

[16] = test system: goosegrass (Eleusine indica); assay: as above; settings: 10 days; for Goosegrass plant response rating (0 to 100 scale): 0 is no effect, 100 is complete control
How it was run: as §1

[17] = test system: horseweed (Erigeron canadensis); assay: as above; settings: Postemergence, 10 days; for Horseweed plant response rating (0 to 100 scale): 0 is no effect, 100 is complete control
How it was run: as §1

[18] = test system: kochia (Bassia scoparia); assay: as above; settings: Postemergence, 10 days; for Kochia plant response rating (0 to 100 scale): 0 is no effect, 100 is complete control
How it was run: as §1

[19] = test system: oat, wild (wild oat, Avena fatua); assay: as above; settings: Postemergence, 10 days, 0 is no effect, 100 is complete control
How it was run: as §1

[20] = test system: palmer (palmer amaranth, palmer pigweed, Amaranthus palmeri); assay: as above; settings: Postemergence, 10 days; for Amaranth, Palmer / Pigweed, Palmer plant response rating (0 to 100 scale): 0 is no effect, 100 is complete control
How it was run: as §1

[21] = test system: ragweed (common ragweed, Ambrosia artemisiifolia); assay: as above; settings: Postemergence, 10 days; for Ragweed plant response rating (0 to 100 scale): 0 is no effect, 100 is complete control
How it was run: as §1

[22] = test system: ryegrass, Italian (italian ryegrass, Lolium multiflorum); assay: as above; settings: Postemergence, 10 days; for Ryegrass, Italian plant response rating (0 to 100 scale): 0 is no effect, 100 is complete control
How it was run: as §1

[23] = test system: soybean (Glycine max); assay: as above; settings: Postemergence, 10 days, 0 is no effect, 100 is complete control
How it was run: as §1

[24] = test system: wheat (Triticum aestivum); assay: as above; settings: Postemergence, 10 days, 0 is no effect, 100 is complete control
How it was run: as §1

[25] = test system: barnyardgrass (Echinochloa crusgalli); assay: Test B flooded paddy test, visual plant response rating 0-100; settings: 250 g ai/ha, Flood, applied to paddy water, evaluated after 13 days
How it was run: (§2)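 Visual evaluation after 13 days. Water-applied treatment, 3 cm flood depth held constant, plants at 2-leaf stage at treatment.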

[26] = test system: ducksalad (Heteranthera limosa); assay: as above; settings: 250 g ai/ha, Flood, applied to paddy water, evaluated after 13 days
How it was run: as §2

[27] = test system: rice (Oryza sativa); assay: as above; settings: 250 g ai/ha, Flood, applied to paddy water, evaluated after 13 days
How it was run: as §2

[28] = test system: sedge, umbrella (small-flower umbrella sedge, Cyperus difformis); assay: as above; settings: 250 g ai/ha, Flood, applied to paddy water, evaluated after 13 days
How it was run: as §2

CONC(=O)C1C=CC(NC(=O)C2(C)CN(c3cc(F)cc(F)c3)C(=O)O2)C1 (centres unmarked) [Compound 25]
70: Soybean plant response rating (0 to 100 scale) ([10]; 500 g ai/ha) | Soybean plant response rating (0 to 100 scale) ([23]; 125 g ai/ha)
10: Amaranth, Palmer plant response rating (0 to 100 scale) ([7]; 125 g ai/ha)
100: Goosegrass plant response rating (0 to 100 scale) ([4]; 500 g ai/ha) | Wheat plant response rating (0 to 100 scale) ([11]; 500 g ai/ha) | Corn plant response rating (0 to 100 scale) ([13]; 125 g ai/ha) | Corn plant response rating (0 to 100 scale) ([13]; 500 g ai/ha) | Oat, Wild plant response rating (0 to 100 scale) ([19]; 500 g ai/ha)
0: Ragweed plant response rating (0 to 100 scale) ([8]; 125 g ai/ha) | Soybean plant response rating (0 to 100 scale) ([10]; 125 g ai/ha)
60: Ryegrass, Italian plant response rating (0 to 100 scale) ([9]; 125 g ai/ha) | Wheat plant response rating (0 to 100 scale) ([11]; 125 g ai/ha) | Horseweed plant response rating (0 to 100 scale) ([17]; 125 g ai/ha) | Ragweed plant response rating (0 to 100 scale) ([21]; 125 g ai/ha) | Ryegrass, Italian plant response rating (0 to 100 scale) ([22]; 125 g ai/ha) | Ryegrass, Italian plant response rating (0 to 100 scale) ([22]; 500 g ai/ha)
90: Blackgrass plant response rating (0 to 100 scale) ([1]; 500 g ai/ha) | Corn plant response rating (0 to 100 scale) ([2]; 500 g ai/ha) | Foxtail, Giant plant response rating (0 to 100 scale) ([3]; 500 g ai/ha) | Kochia plant response rating (0 to 100 scale) ([5]; 500 g ai/ha) | Oat, Wild plant response rating (0 to 100 scale) ([6]; 500 g ai/ha) | Ryegrass, Italian plant response rating (0 to 100 scale) ([9]; 500 g ai/ha) | Blackgrass plant response rating (0 to 100 scale) ([12]; 500 g ai/ha) | Foxtail, Giant plant response rating (0 to 100 scale) ([14]; 125 g ai/ha) | Foxtail, Giant plant response rating (0 to 100 scale) ([14]; 500 g ai/ha) | Goosegrass plant response rating (0 to 100 scale) ([16]; 125 g ai/ha) | Goosegrass plant response rating (0 to 100 scale) ([16]; 500 g ai/ha) | Kochia plant response rating (0 to 100 scale) ([18]; 500 g ai/ha) | Oat, Wild plant response rating (0 to 100 scale) ([19]; 125 g ai/ha) | Amaranth, Palmer / Pigweed, Palmer plant response rating (0 to 100 scale) ([20]; 125 g ai/ha) | Amaranth, Palmer / Pigweed, Palmer plant response rating (0 to 100 scale) ([20]; 500 g ai/ha)
40: Blackgrass plant response rating (0 to 100 scale) ([1]; 125 g ai/ha)
30: Goosegrass plant response rating (0 to 100 scale) ([4]; 125 g ai/ha) | Kochia plant response rating (0 to 100 scale) ([5]; 125 g ai/ha) | Ragweed plant response rating (0 to 100 scale) ([8]; 500 g ai/ha)
50: Corn plant response rating (0 to 100 scale) ([2]; 125 g ai/ha)
20: Foxtail, Giant plant response rating (0 to 100 scale) ([3]; 125 g ai/ha)
80: Oat, Wild plant response rating (0 to 100 scale) ([6]; 125 g ai/ha) | Amaranth, Palmer plant response rating (0 to 100 scale) ([7]; 500 g ai/ha) | Blackgrass plant response rating (0 to 100 scale) ([12]; 125 g ai/ha) | Galium plant response rating (0 to 100 scale) ([15]; 125 g ai/ha) | Galium plant response rating (0 to 100 scale) ([15]; 500 g ai/ha) | Horseweed plant response rating (0 to 100 scale) ([17]; 500 g ai/ha) | Kochia plant response rating (0 to 100 scale) ([18]; 125 g ai/ha) | Ragweed plant response rating (0 to 100 scale) ([21]; 500 g ai/ha) | Soybean plant response rating (0 to 100 scale) ([23]; 500 g ai/ha) | Wheat plant response rating (0 to 100 scale) ([24]; 125 g ai/ha) | Wheat plant response rating (0 to 100 scale) ([24]; 500 g ai/ha)

CNC(=O)C1C=CC(NC(=O)C2(C)CN(c3cc(F)cc(F)c3)C(=O)O2)C1 (centres unmarked) [Compound 26]
70: Galium plant response rating ([15]; 1000 g ai/ha, 0 to 100 scale) | Horseweed plant response rating ([17]; 1000 g ai/ha, 0 to 100 scale) | Ryegrass, Italian plant response rating ([22]; 1000 g ai/ha, 0 to 100 scale)
95: Plant response rating, Ducksalad (0 to 100 scale, 0 is no effect and 100 is complete control) [26] | Plant response rating, Sedge, Umbrella (0 to 100 scale, 0 is no effect and 100 is complete control) [28]
35: Plant response rating, Rice (0 to 100 scale, 0 is no effect and 100 is complete control) [27]
80: Kochia plant response rating ([18]; 1000 g ai/ha, 0 to 100 scale)
45: Plant response rating, Barnyardgrass (0 to 100 scale, 0 is no effect and 100 is complete control) [25]
50: Ragweed plant response rating ([21]; 1000 g ai/ha, 0 to 100 scale)
100: Blackgrass plant response rating (0 to 100 scale) ([1]; 1000 g ai/ha) | Foxtail, Giant plant response rating (0 to 100 scale) ([3]; 1000 g ai/ha) | Goosegrass plant response rating (0 to 100 scale) ([4]; 1000 g ai/ha) | Amaranth, Palmer / Pigweed, Palmer plant response rating (0 to 100 scale) ([7]; 1000 g ai/ha) | Ryegrass, Italian plant response rating (0 to 100 scale) ([9]; 1000 g ai/ha)
90: Kochia plant response rating (0 to 100 scale) ([5]; 1000 g ai/ha) | Ragweed plant response rating (0 to 100 scale) ([8]; 1000 g ai/ha) | Blackgrass plant response rating ([12]; 1000 g ai/ha, 0 to 100 scale) | Foxtail, Giant plant response rating ([14]; 1000 g ai/ha, 0 to 100 scale) | Goosegrass plant response rating ([16]; 1000 g ai/ha, 0 to 100 scale) | Amaranth, Palmer plant response rating ([20]; 1000 g ai/ha, 0 to 100 scale)

— patent US20260285850A1, “SUBSTITUTED OXAZOLIDINONES AND IMIDAZOLINONES AS HERBICIDES” (FMC CORPORATION, priority 2023, published 2026)
